Assay results reported in patent US20250009766A1, “CA[…] TREATMENT OF SEIZURES AND EPILEPSY” (The Regents of the University of California, priority 2021, published 2025).
“Also recorded” adds a separate entry of the source.

Key:
Assay type in all cases: in vivo
male CF1 mice [1] = assay: Mouse maximal electroshock (MES) test, male CF1 mice; settings: for Percentage protection from Tonic Hind limb Extension: Male CF1 mice
Protocol: (§1) Animals. Male NIH Swiss or CF1 mice (Charles-Rivers, 22-34g) were used in the present study. In most of the experiments, male CF1 mice were used. In the experiment exploring the strain difference between CBD and CBG efficacy in the MES test, these compounds were also tested in male NIH Swiss mice. All experiments involving animals complied with the ARRIVE guidelines of the National Centre for the Replacement, Refinement, and Reduction of Animals in Research and were performed in accordance with the National Institutes of Health Guide for the Care and Use of Laboratory Animals (NIH publication No. 8023, revised in 1978) under protocols approved by the University of California, Davis, Institutional Animal Care and Use Committee.
(§2) All the cannabinoids were prepared in ethanol: Cremophor: saline in the ratio of 2:1:17. These were administered Intraperitoneally (IP) in a dose volume of 10 ml/kg.
(§3) Mouse maximal electroshock test. Samples of CBD, both from decarboxylation of cannabidiolic acid (CBDA) and a commercial source, were tested in parallel as a comparator. Samples of CBD and CBG were prepared by decarboxylating their respective active precursors CBDA and cannabigerolic acid (CBGA; 95+% pure) by heating at 102° C. (215° F.) for 60 min. The precursor compounds were isolated from hemp. For comparison, the antiseizure activity of pure, commercial, hemp-derived CBD and chemically synthesized CBG in crystalline form was also determined in the MES test. Also investigated was whether CBDA and CBGA have antiseizure potential at the highest dose tested (150 mg/kg) in this model. Male CF1 mice were used in the current study. Sixty min after IP injection of the cannabinoids, the animals were subjected to a 0.2-s, 60-Hz, 50-mA electrical stimulus delivered with corneal electrodes (5 mm diameter stainless steel balls) wetted with 0.9% saline. Animals failing to show THLE were scored as protected. In the time-response curve experiment, CBG was administered at different times before the MES test. In most of the experiments, male CF1 mice were used. In the experiment exploring the strain difference between CBD and CBG efficacy in the MES test, these compounds were additionally tested in male NIH Swiss mice.

male NIH Swiss mice = assay: Mouse maximal electroshock (MES) test, male NIH Swiss mice (strain difference); settings: for Percentage protection from Tonic Hind limb Extension: Male NIH Swiss mice; for effect in MES test: male NIH Swiss mice
Protocol: as §1, §2, §3

male CF1 mice [2] = assay: Mouse pentylenetetrazol (PTZ) test
Protocol: as §1, §2
Mouse pentylenetetrazol (PTZ) test. Sixty min after IP injection of either cannabidiol (CBD) or cannabigerol (CBG) in male CF1 mice, the animals were challenged with 80 or 100 mg/kg PTZ delivered via intraperitoneal (IP) route of administration. The onset of myoclonic jerks, generalized clonus, tonus/tonic extension, and mortality was observed. The percentage of animals was further calculated that underwent these phases caused by PTZ. Failure to observe such phases or delayed onset is considered as protection.

[3] = 50 mg/kg IP, 60 min before MES, male CF1 mice
[4] = 100 mg/kg IP, 60 min before MES, male CF1 mice
[5] = 150 mg/kg IP, 60 min before MES, male CF1 mice
[6] = 200 mg/kg IP, 60 min before MES, male CF1 mice
[7] = male CF1 mice, IP, 60 min before MES
[8] = protection from THLE, male CF1 mice, IP, 60 min before MES
[9] = dose 100, 1 h before MES (0.2-s, 60-Hz, 50-mA)
[10] = dose 150, 1 h before MES (0.2-s, 60-Hz, 50-mA)
[11] = PTZ 80 mg/kg IP, treatment 100 mg/kg IP 1 h before
[12] = PTZ 80 mg/kg IP, treatment 150 mg/kg IP 1 h before
[13] = PTZ 100 mg/kg IP, treatment 150 mg/kg IP 1 h before
[14] = high dose PTZ test (100 mg/kg), treatment 150 mg/kg IP

CCCCCc1cc(O)c2c(c1)OC(C)(CCC=C(C)C)C=C2 (stereo not drawn) [CBC oil, cannabichromene]
Percentage Protection (male CF1 mice [1]; [3]): 11.1%
Percentage Protection (male CF1 mice [1]; [4]): 12.5%
Percentage Protection (male CF1 mice [1]; [5]): 12.5%
Percentage Protection (male CF1 mice [1]; [6]): 25%
fraction of animals protected (male CF1 mice [1]; 250 mg/kg IP, 60 min before MES, male CF1 mice): 25%
potency relative to CBD and CBG in MES test (male CF1 mice [1]; [7]): less potent than CBD and CBG

C=C(C)[C@@H]1CCC(C)=C[C@H]1c1c(O)cc(CCCCC)cc1O [CBD obtained from CBDA isolates, cannabidiol]
doses at which animals were protected from THLE (male CF1 mice [1]; [7]): 25 to 150 mg/kg
ED50 (mg/kg, IP) (male CF1 mice [1]; [8]): 62.7 ± 5.6 mg/kg

C=C(C)[C@@H]1CCC(C)=C[C@H]1c1c(O)cc(CCCCC)cc1O [CBD, cannabidiol]
Percentage protection from Tonic Hind limb Extension (male CF1 mice [1]; [9]): 100%
Percentage protection from Tonic Hind limb Extension (male CF1 mice [1]; [10]): 100%
effect in MES test (male CF1 mice [1]; male CF1 mice): protected animals from Tonic Hindlimb Extension (THLE); also recorded: effective
Percentage protection from Tonic Hind limb Extension (male NIH Swiss mice; [9]): 12.5%
Percentage protection from Tonic Hind limb Extension (male NIH Swiss mice; [10]): 12.5%
effect in MES test (male NIH Swiss mice): not protective
Death time (s) (male CF1 mice [2]; [11]): None
Onset of generalized clonus (male CF1 mice [2]; [11]): 333.9 ± 174.3 s
Onset of jerks (male CF1 mice [2]; [11]): 138.1 ± 61.9 s
Onset of tonus (s) (male CF1 mice [2]; [11]): None
Percentage animals having generalized clonus (male CF1 mice [2]; [11]): 87.5%
Percentage animals having tonus (male CF1 mice [2]; [11]): None
Percentage mortality (male CF1 mice [2]; [11]): 0%
Percentage of animals having myoclonic jerks (male CF1 mice [2]; [11]): 100%
Death time (s) (male CF1 mice [2]; [12]): None
Onset of generalized clonus (male CF1 mice [2]; [12]): 612.5 ± 515.5 s
Onset of jerks (male CF1 mice [2]; [12]): 95.6 ± 13.3 s
Onset of tonus (s) (male CF1 mice [2]; [12]): None
Percentage animals having generalized clonus (male CF1 mice [2]; [12]): 25%
Percentage animals having tonus (male CF1 mice [2]; [12]): None
Percentage mortality (male CF1 mice [2]; [12]): 0%
Percentage of animals having myoclonic jerks (male CF1 mice [2]; [12]): 100%
Death time (s) (male CF1 mice [2]; [13]): None
Onset of generalized clonus (male CF1 mice [2]; [13]): 329.3 ± 152.3 s
Onset of jerks (male CF1 mice [2]; [13]): 63.6 ± 4.8 s
Onset of tonus (male CF1 mice [2]; [13]): 1362.5 ± 888.5 s
Percentage animals having generalized clonus (male CF1 mice [2]; [13]): 100%
Percentage animals having tonus (male CF1 mice [2]; [13]): 25%
Percentage mortality (male CF1 mice [2]; [13]): 0%
Percentage of animals having myoclonic jerks (male CF1 mice [2]; [13]): 100%
effect on generalized clonus (male CF1 mice [2]; high dose PTZ test (100 mg/kg)): no difference
latency to onset of myoclonic jerks (male CF1 mice [2]; [14]): increased the latency to onset of myoclonic jerks
protection from tonus phase and mortality (male CF1 mice [2]; [14]): protected animals from undergoing tonus phase and mortality
protection from generalized clonus (male CF1 mice [2]; low dose PTZ test (80 mg/kg, IP), treatment 150 mg/kg IP): effective in protecting animals from generalized clonus

CCCCCc1cc(O)c(C/C=C(\C)CCC=C(C)C)c(O)c1 [CBG obtained from CBGA, cannabigerol]
doses at which animals were protected from THLE (male CF1 mice [1]; [7]): 65 to 200 mg/kg
ED50 (male CF1 mice [1]; [8]): 99 ± 7.01 mg/kg

CCCCCc1cc(O)c(C/C=C(\C)CCC=C(C)C)c(O)c1 [CBG, cannabigerol]
Percentage protection from Tonic Hind limb Extension (male CF1 mice [1]; [9]): 62.5%
Percentage protection from Tonic Hind limb Extension (male CF1 mice [1]; [10]): 75%
effect in MES test (male CF1 mice [1]; male CF1 mice): protected animals from Tonic Hindlimb Extension (THLE); also recorded: effective
time of maximum response (protection from THLE) after administration (male CF1 mice [1]; single IP injection of 100 mg/kg, male CF1 mice, tested 15-240 min): 60 to 120 min
Percentage protection from Tonic Hind limb Extension (male NIH Swiss mice; [9]): 12.5%
Percentage protection from Tonic Hind limb Extension (male NIH Swiss mice; [10]): 12.5%
effect in MES test (male NIH Swiss mice): not protective
Death time (s) (male CF1 mice [2]; [11]): None
Onset of generalized clonus (male CF1 mice [2]; [11]): 199.1 ± 90.6 s
Onset of jerks (male CF1 mice [2]; [11]): 101.1 ± 50.7 s
Onset of tonus (s) (male CF1 mice [2]; [11]): None
Percentage animals having generalized clonus (male CF1 mice [2]; [11]): 87.5%
Percentage animals having tonus (male CF1 mice [2]; [11]): None
Percentage mortality (male CF1 mice [2]; [11]): 0%
Percentage of animals having myoclonic jerks (male CF1 mice [2]; [11]): 87.5%
Death time (s) (male CF1 mice [2]; [12]): None
Onset of generalized clonus (male CF1 mice [2]; [12]): 117.8 ± 46.8 s
Onset of jerks (male CF1 mice [2]; [12]): 93 ± 26.6 s
Onset of tonus (male CF1 mice [2]; [12]): 852.5 ± 170.5 s
Percentage animals having generalized clonus (male CF1 mice [2]; [12]): 62.5%
Percentage animals having tonus (male CF1 mice [2]; [12]): 25%
Percentage mortality (male CF1 mice [2]; [12]): 0%
Percentage of animals having myoclonic jerks (male CF1 mice [2]; [12]): 100%
Death time (male CF1 mice [2]; [13]): 1082.6 ± 265.5 s
Onset of generalized clonus (male CF1 mice [2]; [13]): 200.8 ± 105.9 s
Onset of jerks (male CF1 mice [2]; [13]): 50.1 ± 3.3 s
Onset of tonus (male CF1 mice [2]; [13]): 1351.3 ± 410.7 s
Percentage animals having generalized clonus (male CF1 mice [2]; [13]): 100%
Percentage animals having tonus (male CF1 mice [2]; [13]): 100%
Percentage mortality (male CF1 mice [2]; [13]): 62.5%
Percentage of animals having myoclonic jerks (male CF1 mice [2]; [13]): 100%
overall effect in PTZ seizure test (male CF1 mice [2]; PTZ IP, male CF1 mice): had no effect
protection from mortality (male CF1 mice [2]; high dose PTZ): protected some animals from mortality

C=C(C)[C@@H]1CCC(C)=C[C@H]1c1c(O)cc(CCCCC)c(C(=O)O)c1O [Cannabidiolic acid (CBDA), cannabidiolic acid]
Percentage Protection (male CF1 mice [1]; [5]): 0%
antiseizure activity (male CF1 mice [1]; highest dose tested (150 mg/kg), male CF1 mice): no antiseizure activity

CCCCCc1cc(O)c(C/C=C(\C)CCC=C(C)C)c(O)c1C(=O)O [Cannabigerolic acid (CBGA), cannabigerolic acid]
Percentage Protection (male CF1 mice [1]; [5]): 25%

C=C(C)[C@@H]1CCC(C)=C[C@H]1c1c(O)cc(CCCCC)cc1O [Crystalline hemp derived CBD, cannabidiol]
Percentage Protection (male CF1 mice [1]; [3]): 0%
Percentage Protection (male CF1 mice [1]; 65 mg/kg IP, 60 min before MES, male CF1 mice): 37.5%
Percentage Protection (male CF1 mice [1]; 75 mg/kg IP, 60 min before MES, male CF1 mice): 37.5%
Percentage Protection (male CF1 mice [1]; 85 mg/kg IP, 60 min before MES, male CF1 mice): 50%
Percentage Protection (male CF1 mice [1]; [4]): 75%
Percentage Protection (male CF1 mice [1]; [5]): 75%
ED50 (mg/kg, IP) (male CF1 mice [1]; protection from THLE, male CF1 mice, IP, 60 min before MES, listed as commercial CBD): 83.7 ± 5.7 mg/kg

CCCCCc1cc(O)c(C/C=C(\C)CCC=C(C)C)c(O)c1 [cannabigerol]
Percentage Protection (male CF1 mice [1]; [4]): 62.5%
Percentage Protection (male CF1 mice [1]; [5]): 75%
Percentage Protection (male CF1 mice [1]; [6]): 62.5%
